Measured values published in ChEMBL document CHEMBL1135293, “Amino acid derived sulfonamide hydroxamates as inhibitors of procollagen C-proteinase. Part 2: Solid-phase optimization of side chains” (Bioorg Med Chem Lett, 2002).

target: T1, Bone morphogenetic protein 1 (Homo sapiens, UniProt P13497); test: Inhibitory activity against Procollagen C-Proteinase (PCP)
T1 sequence (P13497 whole entry): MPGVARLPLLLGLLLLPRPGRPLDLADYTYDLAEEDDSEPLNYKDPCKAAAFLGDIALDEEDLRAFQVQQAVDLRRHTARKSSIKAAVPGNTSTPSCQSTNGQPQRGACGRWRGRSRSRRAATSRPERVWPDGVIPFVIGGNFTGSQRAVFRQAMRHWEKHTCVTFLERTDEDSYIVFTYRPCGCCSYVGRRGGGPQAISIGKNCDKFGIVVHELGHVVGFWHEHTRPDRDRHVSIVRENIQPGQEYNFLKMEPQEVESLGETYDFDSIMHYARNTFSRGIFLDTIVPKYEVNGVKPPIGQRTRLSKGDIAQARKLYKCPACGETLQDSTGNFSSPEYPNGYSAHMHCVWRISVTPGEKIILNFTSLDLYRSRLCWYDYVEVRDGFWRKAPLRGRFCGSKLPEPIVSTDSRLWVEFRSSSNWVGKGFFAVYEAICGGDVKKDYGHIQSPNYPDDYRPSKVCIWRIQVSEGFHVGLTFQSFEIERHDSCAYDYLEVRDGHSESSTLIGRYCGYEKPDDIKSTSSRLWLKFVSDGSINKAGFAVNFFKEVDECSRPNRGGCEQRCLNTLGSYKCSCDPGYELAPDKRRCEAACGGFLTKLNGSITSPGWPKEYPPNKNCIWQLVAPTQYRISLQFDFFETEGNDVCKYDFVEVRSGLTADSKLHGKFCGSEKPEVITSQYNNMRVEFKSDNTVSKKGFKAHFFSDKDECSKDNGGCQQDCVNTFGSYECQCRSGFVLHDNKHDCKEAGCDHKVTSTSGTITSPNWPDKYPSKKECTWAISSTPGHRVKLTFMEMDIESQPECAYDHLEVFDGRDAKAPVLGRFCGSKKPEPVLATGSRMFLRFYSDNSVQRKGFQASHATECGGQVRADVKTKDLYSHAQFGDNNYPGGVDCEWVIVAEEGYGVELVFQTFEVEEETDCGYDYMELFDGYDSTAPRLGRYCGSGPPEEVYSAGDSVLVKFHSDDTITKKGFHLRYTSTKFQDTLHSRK

Row | IC50 [nM] | Structure (SMILES)
1 | 220 | COc1ccc(S(=O)(=O)N(Cc2ccc3cc(C)ccc3c2)[C@H](C)C(=O)NO)cc1
2 | 37 | COc1ccc(S(=O)(=O)N(Cc2ccc(Br)cc2)[C@H](C)C(=O)NO)cc1
3 | 140 | COc1ccc(S(=O)(=O)N(Cc2cc(F)cc(F)c2)[C@H](C)C(=O)NO)cc1
4 | 220 | COc1ccc(S(=O)(=O)N(Cc2ccc(OC)c(C)c2C)[C@H](C)C(=O)NO)cc1
5 | 50 | COc1ccc(S(=O)(=O)N(Cc2ccc3c(c2)OCO3)[C@H](Cc2cn(C)cn2)C(=O)NO)cc1
6 | 23 | C=CCOC(=O)NCC(N)C(=O)[C@H](C(=O)NO)N(Cc1ccc2c(c1)OCO2)S(=O)(=O)c1ccc(OC)cc1 (some centres undefined)
7 | 32 | COc1ccc(S(=O)(=O)N(Cc2ccc3c(c2)OCO3)[C@H](Cc2ccc([N+](=O)[O-])cc2)C(=O)NO)cc1

target: T1, Bone morphogenetic protein 1; test: Inhibitory activity against procollagen C-proteinase (PCP).

Row | Structure (SMILES) | IC50 [nM]
8 | COc1ccc(S(=O)(=O)N(Cc2ccc3c(c2)OCO3)[C@H](Cc2ccncc2)C(=O)O)cc1 | 592
9 | COc1ccc(S(=O)(=O)N(CCn2cccc2)[C@H](Cc2cccs2)C(=O)NO)cc1 | 610
10 | COc1ccc(S(=O)(=O)N(Cc2ccc(Cl)cc2Cl)[C@H](Cc2cccs2)C(=O)NO)cc1 | 860
11 | COc1ccc(S(=O)(=O)N(Cc2ccc(OC)c(C)c2)[C@H](Cc2cccs2)C(=O)NO)cc1 | 490
12 | COc1ccc(S(=O)(=O)N(Cc2cccc(I)c2)[C@H](C)C(=O)O)cc1 | 280
13 | COc1ccc(S(=O)(=O)N(Cc2ccc(I)cc2)[C@H](Cc2cccs2)C(=O)NO)cc1 | 360
14 | COc1ccc(S(=O)(=O)N(Cc2ccc3c(c2)OCO3)[C@H](Cc2ccco2)C(=O)O)cc1 | 470
15 | COc1ccc(S(=O)(=O)N(Cc2ccc3c(c2)OCO3)[C@H](Cc2ccc(Br)s2)C(=O)O)cc1 | 670
16 | C=CCOc1ccc2ccc(CN([C@H](Cc3cccs3)C(=O)NO)S(=O)(=O)c3ccc(OC)cc3)cc2c1 | 290
17 | COc1ccc(S(=O)(=O)N(Cc2ccc(Cl)c(Cl)c2)[C@H](Cc2cccs2)C(=O)NO)cc1 | 440
18 | COc1ccc(S(=O)(=O)N(Cc2cccc(C)c2[N+](=O)[O-])[C@H](C)C(=O)O)cc1 | 380
19 | COc1ccc(S(=O)(=O)N(Cc2ccc(Br)cc2F)[C@H](C)C(=O)O)cc1 | 490
20 | COc1ccc(S(=O)(=O)N(Cc2cccc(Cl)c2)[C@H](Cc2cccs2)C(=O)NO)cc1 | 390
21 | COc1ccc(S(=O)(=O)N(Cc2ccc3c(c2)OCO3)[C@H](COCc2ccccc2)C(=O)O)cc1 | 380
22 | COc1ccc(S(=O)(=O)N(Cc2ccc(-c3cnns3)cc2)[C@H](Cc2cccs2)C(=O)NO)cc1 | 440
23 | COc1ccc(S(=O)(=O)N(Cc2ccc(C(C)C)cc2)[C@H](C)C(=O)O)cc1 | 350
24 | COc1ccc(S(=O)(=O)N(Cc2cc(C(F)(F)F)cc(C(F)(F)F)c2)[C@H](Cc2cccs2)C(=O)NO)cc1 | 590
25 | COc1ccc(S(=O)(=O)N(Cc2ccc3c(c2)OCO3)[C@H](CCC(=O)OC2CCCCC2)C(=O)O)cc1 | 470

Second part, the molecule after the results:

Row | IC50 [nM] | Structure (SMILES)
26 | 260 | COc1ccc(S(=O)(=O)N(Cc2cccc(Br)c2)[C@H](Cc2cccs2)C(=O)NO)cc1
27 | 250 | COc1ccc(CSC[C@H](C(=O)O)N(Cc2ccc3c(c2)OCO3)S(=O)(=O)c2ccc(OC)cc2)cc1
28 | 230 | COc1ccc(S(=O)(=O)N(Cc2cccc(Br)c2)[C@H](Cc2cccs2)C(=O)O)cc1
29 | 210 | COC(=O)c1ccc(CN([C@H](Cc2cccs2)C(=O)O)S(=O)(=O)c2ccc(OC)cc2)cc1
30 | 200 | COc1ccc(S(=O)(=O)N(Cc2ccc(OC)c(C)c2C)[C@H](C)C(=O)O)cc1
31 | 200 | CCCCN(C)C(=N)NCCCC[C@H](C(=O)O)N(Cc1ccc2c(c1)OCO2)S(=O)(=O)c1ccc(OC)cc1
32 | 190 | C=Cc1ccc(CN([C@H](Cc2cccs2)C(=O)NO)S(=O)(=O)c2ccc(OC)cc2)cc1
33 | 180 | COc1ccc(S(=O)(=O)N(Cc2cc(F)c(F)cc2F)[C@H](Cc2cccs2)C(=O)NO)cc1
34 | 150 | COc1ccc(S(=O)(=O)N(Cc2cccc(C)c2F)[C@H](Cc2cccs2)C(=O)NO)cc1
35 | 120 | COc1ccc(S(=O)(=O)N(Cc2cc(C)on2)[C@H](Cc2cccs2)C(=O)O)cc1
36 | 110 | COC(=O)c1ccc(CN([C@H](Cc2cccs2)C(=O)NO)S(=O)(=O)c2ccc(OC)cc2)cc1
37 | 110 | COc1ccc(S(=O)(=O)N(Cc2ccc(C)cc2)[C@H](Cc2cccs2)C(=O)NO)cc1
38 | 100 | COc1ccc(S(=O)(=O)N(Cc2cccc(F)c2F)[C@H](Cc2cccs2)C(=O)NO)cc1
39 | 80 | COc1ccc(S(=O)(=O)N(Cc2ccc(F)c(F)c2)[C@H](Cc2cccs2)C(=O)NO)cc1
40 | 50 | COc1ccc(S(=O)(=O)N(Cc2sc3scc(C)c3c2C)[C@H](C)C(=O)O)cc1
41 | 28 | CCN(CC)C(=N)NCCC[C@H](C(=O)O)N(Cc1ccc2c(c1)OCO2)S(=O)(=O)c1ccc(OC)cc1
42 | 26 | COc1ccc(S(=O)(=O)N(Cc2ccc3c(c2)OCO3)[C@@H](C(=O)O)C2CCN(C(=O)OC(C)(C)C)CC2)cc1
43 | 24 | COc1ccc(S(=O)(=O)N(Cc2ccc3c(c2)OCO3)[C@H](Cc2cccs2)C(=O)O)cc1
44 | 10 | C#CC[C@H](C(=O)O)N(Cc1ccc2c(c1)OCO2)S(=O)(=O)c1ccc(OC)cc1
